Measured values taken from paper PMC10381170, “1,3,4-Oxadiazole and 1,3,4-Thiadiazole Nortopsentin Derivatives against Pancreatic Ductal Adenocarcinoma: Synthesis, Cytotoxic Activity, and Inhibition of CDK1” (Marine Drugs, 2023).

Experiments:
[1] = tested on: BxPC-3 cells; test: SRB antiproliferative assay, BxPC-3; format: cell-based, human
Procedure: (§1) The cytotoxic activity of the nortopsentin derivatives 3b, 3e, 4c, 5b, and 6c on pancreatic cancer cells (BxPC-3, Panc-1, Suit-2, Capan-1, PaTu-T, primary PDAC-3 and resistant Panc-1-GR cells) was determined by the sulforhodamine B (SRB) chemosensitivity assay, as described previously. Cells were plated in 96-well flat-bottom plates at final concentrations ranging from 3000–5000 cells/well in 100 µL of medium. After a 24 h pre-incubation period, cells were treated with the compounds at nine screening concentrations (from 0.1 μM to 40 μM) in triplicate and incubated at 37 °C for 72 h. After the treatment, cells were fixed with 25 µL of cold 50% trichloroacetic acid (TCA) for each well and incubated at 4 °C for 1 h. Afterwards, plates were washed five times with demi-water and air-dried overnight. Then, the plates were stained with 50 µL of 0.4% SRB solution in 1% acetic acid for 15 min. The excess stain was rinsed off by placing the plates under running 1% acetic acid and allowed to dry at room temperature overnight. SRB staining was rinsed with 150 µL tris(hydroxymethyl)aminomethane solution pH = 8.8 (TRIS-base), and the optical density (OD) was read at 492 nm. Each assay was performed in triplicate and assays were repeated at least three times. The comparison of the average optical density of the growth in control wells with that in the sample wells allowed the estimation of the percentage of cell growth, using the following equation: % Cell Growth = (mean ODcompound − mean ODday zero plate)/(mean ODcells − mean ODday zero plate) × 100
(§2) The results obtained were adjusted by the day zero plate (wells containing cells growing for only 24 h) and normalized by the control cells (wells with untreated cells) to obtain the rate of viable cells.

[2] = tested on: Panc-1 cells; test: SRB antiproliferative assay, Panc-1; format: cell-based, human
Procedure: as §1, §2

[3] = tested on: Suit-2 cells; test: SRB antiproliferative assay, Suit-2; format: cell-based, human
Procedure: as §1, §2

[4] = tested on: PaTu-T cells; test: SRB antiproliferative assay, PaTu-T; format: cell-based, human
Procedure: as §1, §2

[5] = tested on: PDAC cells; test: SRB antiproliferative assay, whole PDAC panel; format: cell-based; conditions: Homo sapiens; seven PDAC models, 72 h; read-out: IC50 values, range over the PDAC cell panel
Procedure: as §1, with “The comparison of the average optical density of the growth in control wells with that in the sample wells allowed the estimation of the percentage of cell growth, using the following equation: % Cell Growth = (mean ODcompound − mean ODday zero plate)/(mean ODcells − mean ODday zero plate) × 100” left out

[6] = tested on: PDAC-3 cells; test: Cell-cycle analysis by PI flow cytometry, PDAC-3; format: cell-based, human
Procedure: (§3) Cell cycle perturbation was analyzed by flow cytometry. Optimized numbers of cells (5 × 10^5 cells/mL) were seeded in 6-well plates. […] After treatment, the cells were harvested by trypsinization (250 µL trypsin-EDTA/well), incubated until the cells detached, re-suspended using the same medium used for culture, collected in specific FACS (Fluorescence Activated Cell Sorting) tubes, and washed with 1.5 mL phosphate-buffered saline (PBS). The samples were then centrifuged to form a pellet (5 min at 1500 rpm). These pellets were fixed in 1 mL of ice-cold 70% ethanol, added drop by drop during vortex, and placed in the refrigerator at 4 °C. After overnight incubation, the cells were washed twice with PBS, centrifuged (5 min at 1500 rpm), re-suspended in […] of RNase ([…]) and incubated for 30 min at 37 °C. Finally, […] of propidium iodide solution (PI, […]) was added, and the cell distribution in the various phases of the cell cycle was analyzed in a FACS Calibur instrument. Data analysis was carried out with FACSdiva software (Becton Dickinson), while cell cycle distribution was determined using Modfit software (Verity-Software, Topsham, ME, USA).

[7] = tested on: Suit-2 cells; test: Cell-cycle analysis by PI flow cytometry, Suit-2; format: cell-based, human
Procedure: as §3

[8] = tested on: BxPC-3 cells; test: Scratch wound-healing assay, BxPC-3; format: cell-based, human; conditions: BxPC-3, 8 h, 4 × IC50, untreated = 100% wound closure
Procedure: Cell migration was assessed using a wound-healing assay, as described previously. A total of 5 × 10^4 cells/well were seeded in a 96-well plate, to form a confluent monolayer. Scratches were created in confluent cell layers using the sterile scratch tool. The detached cells following scratch induction were removed and new medium was added to the wells. Cells were next treated with compounds 3b and 5b at a concentration of 4 × IC50. Cells growing in a complete medium were maintained at 37 °C with a supply of 5% CO2/95% air atmosphere and 100% relative humidity. The progress of wound closure was observed and documented at various time points (0th, 4th, 8th, 20th, and 24th h) using phase-contrast microscopy. Pictures of the plates were taken using the Universal Grab 6.3 software (DCILabs) from a computer connected to a Leica microscope with a JAI TMC-1327 camera.
The percentage of migration was calculated using the following equation:%Migration = (Width of the wound at T = 0 − Width of the wound at T = X)/(Width of the wound at T = 0) × 100

[9] = tested on: CDK1; test: CDK1 ELISA in Suit-2; format: cell-based, human; conditions: Suit-2, 10 µM, 24 h, vs DMSO control, p < 0.01
Procedure: (§4) The expression of CDK1 was detected and quantified using an Enzyme-Linked Immunosorbent Assay (ELISA, Human cyclin-dependent kinase 1 (CDK1) ELISA Kit, Catalog Number: MBS707090) according to the manufacturer’s protocol and our previous studies. Volumes of 100 µL of the standard and the sample were added for each well, and the plates were incubated for 2 h at 37 °C. Then, the liquid was removed, and 100 µL of biotin-antibody was added to each well; the plates were then incubated for 1 h at 37 °C. The medium was removed, and the plates were washed with wash buffer (200 µL). Subsequently, 100 µL of HRP-avidin was added to each well, and the plates were incubated for 1 h at 37 °C. The washing process was repeated five times. At the end, 90 µL of TMB substrate was added to each well, and the plates were incubated for 30 min at 37 °C in the dark. Finally, 50 µL of stop solution was added to each well. The optical density of each well was determined using a microplate reader set to 450 nm.

[10] = tested on: CDK1; test: CDK1 ELISA in PDAC-3; format: cell-based, human; conditions: PDAC-3, 10 µM, 24 h, vs DMSO control, p < 0.01
Procedure: as §4

[11] = Suit-2, 2 μM, 24 h (control 23%)
[12] = Suit-2, 4-fold IC50, 24 h (control 23%)

Cn1cc(-c2nnc(-c3cn(C)c4ncccc34)o2)c2ccccc21 [3b, 1-methyl-3-[5-(1-methyl-1H-indol-3-yl)-1,3,4-oxadiazol-2-yl]-7-azaindole]
Cell growth percentage ([1]; BxPC-3, 10 μM, 72 h exposure): 11.10%
IC50 ([1]; Homo sapiens, BxPC-3, 72 h, mean ± SEM, read-out: Half-maximal inhibitory concentration (IC50)): 2100 ± 6 nM
IC50 ([2]; Homo sapiens, Panc-1, 72 h, mean ± SEM, read-out: Half-maximal inhibitory concentration (IC50)): 2500 ± 550 nM
Cell growth percentage ([2]; Panc-1, 10 μM, 72 h exposure): 9.12%
IC50 ([3]; Homo sapiens, Suit-2, 72 h, mean ± SEM, read-out: Half-maximal inhibitory concentration (IC50)): 1400 ± 740 nM
Cell growth percentage ([3]; Suit-2, 10 μM, 72 h exposure): 18.34%
Cell growth percentage ([4]; 10 μM, 72 h exposure): 17.13%
IC50 ([4]; Homo sapiens, 72 h, mean ± SEM, read-out: Half-maximal inhibitory concentration (IC50)): 3200 ± 420 nM
IC50 [5]: 1400 to 8100 nM
percentage of cells in G2-M phase ([6]; PDAC-3, 2 μM, 24 h (control 16%)): 23%
percentage of cells in S phase ([6]; PDAC-3, 2 μM, 24 h (control 25%)): 23%
percentage of cells in G0-G1 phase ([6]; PDAC-3, 2 μM, 24 h (control 59%)): 54%
percentage of cells in G2-M phase ([6]; PDAC-3, 4-fold IC50, 24 h (control 16%)): 52%
percentage of cells in S phase ([6]; PDAC-3, 4-fold IC50, 24 h (control 25%)): 19%
percentage of cells in G0-G1 phase ([6]; PDAC-3, 4-fold IC50, 24 h (control 59%)): 29%
percentage of cells in G2-M phase [7, 11]: 75%
percentage of cells in S phase [7, 11]: 15%
percentage of cells in G0-G1 phase ([7]; Suit-2, 2 μM, 24 h (control 54%)): 10%
percentage of cells in G2-M phase [7, 12]: 76%
percentage of cells in S phase [7, 12]: 14%
percentage of cells in G0-G1 phase ([7]; Suit-2, 4-fold IC50, 24 h (control 54%)): 10%
percentage of cells migrating [8]: 39%
CDK1 expression by ELISA [9]: reduction in CDK1 expression
CDK1 expression by ELISA [10]: reduction in CDK1 expression
melting point: 239 °C
